In patent US11584733B2, “Selective histone deacetylase inhibitors for the treatment of human disease” (Shuttle Pharmaceuticals, Inc., priority 2017, dated 2023):

Target: T1, Human recombinant HDAC6 (Homo sapiens, UniProt Q9UBN7)
T1 sequence (Q9UBN7 1-1215): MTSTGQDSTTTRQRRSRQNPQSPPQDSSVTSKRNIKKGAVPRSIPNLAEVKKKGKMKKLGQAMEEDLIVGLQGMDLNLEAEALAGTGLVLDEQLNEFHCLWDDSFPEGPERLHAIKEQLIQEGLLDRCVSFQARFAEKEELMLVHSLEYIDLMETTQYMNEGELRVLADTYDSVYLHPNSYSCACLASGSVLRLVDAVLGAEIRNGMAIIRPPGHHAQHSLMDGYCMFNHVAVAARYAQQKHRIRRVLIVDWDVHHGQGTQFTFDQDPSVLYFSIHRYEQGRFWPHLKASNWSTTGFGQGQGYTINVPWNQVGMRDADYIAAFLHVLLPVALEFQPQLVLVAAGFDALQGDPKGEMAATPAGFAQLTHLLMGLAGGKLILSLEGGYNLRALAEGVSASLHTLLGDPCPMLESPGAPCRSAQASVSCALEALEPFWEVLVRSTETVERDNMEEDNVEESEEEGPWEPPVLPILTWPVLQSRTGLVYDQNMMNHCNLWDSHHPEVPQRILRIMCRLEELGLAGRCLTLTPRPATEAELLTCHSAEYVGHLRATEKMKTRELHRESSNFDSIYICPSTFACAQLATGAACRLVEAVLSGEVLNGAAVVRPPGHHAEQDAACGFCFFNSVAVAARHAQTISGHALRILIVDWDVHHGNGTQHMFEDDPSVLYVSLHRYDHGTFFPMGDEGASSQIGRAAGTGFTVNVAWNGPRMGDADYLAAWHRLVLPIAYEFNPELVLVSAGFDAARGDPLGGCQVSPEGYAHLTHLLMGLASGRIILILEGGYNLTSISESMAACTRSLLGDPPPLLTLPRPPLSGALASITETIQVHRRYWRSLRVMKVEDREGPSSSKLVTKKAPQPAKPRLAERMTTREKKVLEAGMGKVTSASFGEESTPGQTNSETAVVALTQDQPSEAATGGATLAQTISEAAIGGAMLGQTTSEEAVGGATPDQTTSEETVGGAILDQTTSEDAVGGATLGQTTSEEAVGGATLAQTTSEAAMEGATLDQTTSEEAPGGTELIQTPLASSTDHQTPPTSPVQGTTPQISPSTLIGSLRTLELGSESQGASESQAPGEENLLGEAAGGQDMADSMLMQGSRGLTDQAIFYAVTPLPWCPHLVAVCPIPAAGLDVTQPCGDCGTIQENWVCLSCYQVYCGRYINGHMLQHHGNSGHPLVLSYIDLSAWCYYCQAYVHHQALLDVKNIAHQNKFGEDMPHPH
Assay: HDAC isomer assay, Fluor-de-Lys, HDAC6
Assay type: biochemical
Conditions: proof of concept; FIGS. 11 and 12; read-out: EC50 against HDAC6
Procedure: The HDAC isomer (HDAC1, 3, and 6) assays were performed as follows:
Materials: Human recombinant HDAC isomer (HDAC1, HDAC3, and HDAC6); Fluor-de-Lys HDAC substrates; 360 nm excitation 460 nm emission Plate Reader; Disposable pipettes; Pipet-aid; Pipette tips; Micro-pipetter; DMSO; Sterile micro-tubes and conical tubes; and Micro-centrifuge.
Test compounds and control preparation: All test compounds' stock solutions were made in 100% DMSO. Test compound dilutions were made in HDAC Assay buffer with a final concentration of DMSO less than or equal to 1%. Vehicle control was HDAC Assay buffer with 1% DMSO.
The reagents for the assay were prepared as follows:
1. All kit components were defrosted and these, and all dilutions described below, were kept on ice until use.
2. A sufficient amount of HDAC source diluted in Assay Buffer (BML-KI143) was prepared to provide for the assays that were performed (# of wells×15 μl). A 30-fold dilution of the HeLa Extract means that 15p L contains 0.5 μl of the undiluted Extract, an appropriate amount to use per well.
3. Dilution(s) of SAHA and/or Test Inhibitors were prepared in Assay Buffer (BML-KI143). Since 10 μl were used per well, and since the final volume of the HDAC reaction was 50p, these inhibitor dilutions were 5× their final concentration.
4. Dilution(s) of the Fluor de Lys® Substrate (BML-KI104; 50 mM) were prepared in Assay Buffer (BML-KI143) that were 2× the desired final concentration(s). For inhibitor screening, substrate concentrations at or below the Km are recommended. Twenty-five μL were used per well. […] Rapid mixing and dilution into room temperature buffer helped to prevent precipitation at high substrate concentration.
5. Shortly before use (<30 min.), sufficient Fluor de Lys® Developer was prepared for the assays to be performed (50 μl per well). First, the Fluor de Lys® Developer Concentrate was diluted 20-fold (e.g. 50 μl plus 950 μl Assay Buffer) in cold Assay Buffer (BML-K1143). […] The addition of SAHA to the Developer insures that HDAC activity stops when the Developer is added. The Developer was kept on ice until use.
1. Assay buffer, diluted trichostatin A or test inhibitor was added to appropriate wells of the microtiter plate.
2. Diluted HeLa extract or other HDAC sample was added to all wells except those that are to be “No Enzyme Controls.”
3. Diluted Fluor de Lys® Substrate and the samples in the microtiter plate were allowed to equilibrate to assay temperature (e.g. 25 or 37° C.).
4. HDAC reactions were initiated by adding diluted substrate (25 μl) to each well and mixing thoroughly.
5. HDAC reactions were allowed to proceed for desired length of time and then stop them by addition of Fluor de Lys® Developer (50 μl). The plates were incubated at room temperature (25° C.) for 10-15 min.
6. Samples were read in a microtiter-plate reading fluorimeter capable of excitation at a wavelength in the range 350-380 nm and detection of emitted light in the range 440-460 nm.

| EC50 [µM] | Structure (SMILES) |
| --- | --- |
| > 25 | O=C1CCCC(=O)N1 [glutaramide, glutarimide, reference compound] |
| > 25 | Nc1cccc2c1CN(C1CCC(=O)NC1=O)C2=O (centres unmarked) [lenalidomide, reference compound] |
